Data as given in PubChem BioAssay (NCI).
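Compound exposure: 48 hours, 5 concentrations, 96-well plates. Abbreviation: GI50, concentration required for 50% inhibition of growth. TGI denotes the concentration required for complete inhibition of growth.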

Assays:
Test in all cases: growth of human tumour cells (NCI), 48 h
OVCAR-8 ovarian = tested on: OVCAR-8 ovarian
SN12C renal = tested on: SN12C renal
HCT-116 colon = tested on: HCT-116 colon
UO-31 renal = tested on: UO-31 renal
M19-MEL melanoma = tested on: M19-MEL melanoma
HCT-15 colon = tested on: HCT-15 colon
A549 NSCLC = tested on: A549 NSCLC
HCC-2998 colon = tested on: HCC-2998 colon
KM12 colon = tested on: KM12 colon
SF-268 CNS = tested on: SF-268 CNS
CAKI-1 renal = tested on: CAKI-1 renal
SF-539 CNS = tested on: SF-539 CNS
M14 melanoma = tested on: M14 melanoma
DLD-1 colon = tested on: DLD-1 colon
A498 renal = tested on: A498 renal
IGROV1 ovarian = tested on: IGROV1 ovarian
NCI-H23 lung = tested on: NCI-H23 lung
HOP-92 NSCLC = tested on: HOP-92 NSCLC
K-562 leukemia = tested on: K-562 leukemia
HL-60(TB) leukemia = tested on: HL-60(TB) leukemia
HT29 colon = tested on: HT29 colon
ACHN renal = tested on: ACHN renal
COLO 205 colon = tested on: COLO 205 colon
SK-MEL-5 melanoma = tested on: SK-MEL-5 melanoma
SNB-19 CNS = tested on: SNB-19 CNS
UACC-62 melanoma = tested on: UACC-62 melanoma
SK-MEL-28 melanoma = tested on: SK-MEL-28 melanoma
RPMI-8226 leukemia = tested on: RPMI-8226 leukemia
MOLT-4 leukemia = tested on: MOLT-4 leukemia
RXF 393 renal = tested on: RXF 393 renal
SW-620 colon = tested on: SW-620 colon
CCRF-CEM leukemia = tested on: CCRF-CEM leukemia
SK-MEL-2 melanoma = tested on: SK-MEL-2 melanoma
TK-10 renal = tested on: TK-10 renal
OVCAR-5 ovarian = tested on: OVCAR-5 ovarian
MALME-3M melanoma = tested on: MALME-3M melanoma
NCI-H522 lung = tested on: NCI-H522 lung
HOP-62 NSCLC = tested on: HOP-62 NSCLC
SK-OV-3 ovarian = tested on: SK-OV-3 ovarian
NCI-H226 lung = tested on: NCI-H226 lung
EKVX NSCLC = tested on: EKVX NSCLC
NCI-H460 lung = tested on: NCI-H460 lung
OVCAR-4 ovarian = tested on: OVCAR-4 ovarian
KM20L2 colon = tested on: KM20L2 colon
786-0 renal = tested on: 786-0 renal
U251 CNS = tested on: U251 CNS
LOX IMVI melanoma = tested on: LOX IMVI melanoma
LXFL 529 NSCLC = tested on: LXFL 529 NSCLC
OVCAR-3 ovarian = tested on: OVCAR-3 ovarian
SF-295 CNS = tested on: SF-295 CNS
UACC-257 melanoma = tested on: UACC-257 melanoma

Molecule `CC(=O)[CH-]C(=O)c1ccccc1.CC(=O)[CH-]C(=O)c1ccccc1.CCN(CC)CC[O-].CCN(CC)CC[O-].Cl.[Hf+4]` has a GI50 (OVCAR-8 ovarian) greater than 100 µM, a TGI (OVCAR-8 ovarian) greater than 100 µM and a GI50 (SN12C renal) greater than 100 µM. The TGI (SN12C renal) was greater than 100 µM, the GI50 (HCT-116 colon) was greater than 100 µM and the TGI (HCT-116 colon) was greater than 100 µM. It also gave a GI50 (UO-31 renal) greater than 100 µM, a TGI (UO-31 renal) greater than 100 µM and a GI50 (M19-MEL melanoma) greater than 100 µM. The TGI (M19-MEL melanoma) was greater than 100 µM, the GI50 (HCT-15 colon) was greater than 100 µM and the TGI (HCT-15 colon) was greater than 100 µM. It also gave a GI50 (A549 NSCLC) greater than 100 µM, a TGI (A549 NSCLC) greater than 100 µM and a GI50 (HCC-2998 colon) greater than 100 µM. It also gave a TGI (HCC-2998 colon) greater than 100 µM, a GI50 (KM12 colon) greater than 100 µM and a TGI (KM12 colon) greater than 100 µM. For the same molecule, the GI50 (SF-268 CNS) was greater than 100 µM, the TGI (SF-268 CNS) was greater than 100 µM and the GI50 (CAKI-1 renal) was greater than 100 µM. The TGI (CAKI-1 renal) was greater than 100 µM, the GI50 (SF-539 CNS) was greater than 100 µM and the TGI (SF-539 CNS) was greater than 100 µM. For the same molecule, the GI50 (M14 melanoma) was 92 µM, the TGI (M14 melanoma) was greater than 100 µM and the GI50 (DLD-1 colon) was greater than 100 µM. The TGI (DLD-1 colon) was greater than 100 µM, the GI50 (A498 renal) was 32.2 µM and the TGI (A498 renal) was greater than 100 µM. For the same molecule, the GI50 (IGROV1 ovarian) was greater than 100 µM, the TGI (IGROV1 ovarian) was greater than 100 µM and the GI50 (NCI-H23 lung) was 19.7 µM. For the same molecule, the TGI (NCI-H23 lung) was greater than 100 µM, the GI50 (HOP-92 NSCLC) was 58.9 µM and the TGI (HOP-92 NSCLC) was greater than 100 µM. The GI50 (K-562 leukemia) was greater than 100 µM, the TGI (K-562 leukemia) was greater than 100 µM and the GI50 (HL-60(TB) leukemia) was greater than 100 µM. The TGI (HL-60(TB) leukemia) was greater than 100 µM, the GI50 (HT29 colon) was greater than 100 µM and the TGI (HT29 colon) was greater than 100 µM. For the same molecule, the GI50 (ACHN renal) was 44.6 µM, the TGI (ACHN renal) was greater than 100 µM and the GI50 (COLO 205 colon) was greater than 100 µM. It also gave a TGI (COLO 205 colon) greater than 100 µM, a GI50 (SK-MEL-5 melanoma) greater than 100 µM and a TGI (SK-MEL-5 melanoma) greater than 100 µM. It also gave a GI50 (SNB-19 CNS) greater than 100 µM, a TGI (SNB-19 CNS) greater than 100 µM and a GI50 (UACC-62 melanoma) greater than 100 µM. For the same molecule, the TGI (UACC-62 melanoma) was greater than 100 µM, the GI50 (SK-MEL-28 melanoma) was greater than 100 µM and the TGI (SK-MEL-28 melanoma) was greater than 100 µM. The GI50 (RPMI-8226 leukemia) was greater than 100 µM, the TGI (RPMI-8226 leukemia) was greater than 100 µM and the GI50 (MOLT-4 leukemia) was 65 µM. It also gave a TGI (MOLT-4 leukemia) greater than 100 µM, a GI50 (RXF 393 renal) of 29.7 µM and a TGI (RXF 393 renal) greater than 100 µM. For the same molecule, the GI50 (SW-620 colon) was greater than 100 µM, the TGI (SW-620 colon) was greater than 100 µM and the GI50 (CCRF-CEM leukemia) was 81.6 µM. The TGI (CCRF-CEM leukemia) was greater than 100 µM, the GI50 (SK-MEL-2 melanoma) was greater than 100 µM and the TGI (SK-MEL-2 melanoma) was greater than 100 µM. For the same molecule, the GI50 (TK-10 renal) was greater than 100 µM, the TGI (TK-10 renal) was greater than 100 µM and the GI50 (OVCAR-5 ovarian) was greater than 100 µM. The TGI (OVCAR-5 ovarian) was greater than 100 µM, the GI50 (MALME-3M melanoma) was greater than 100 µM and the TGI (MALME-3M melanoma) was greater than 100 µM. For the same molecule, the GI50 (NCI-H522 lung) was 52.5 µM, the TGI (NCI-H522 lung) was greater than 100 µM and the GI50 (HOP-62 NSCLC) was greater than 100 µM. For the same molecule, the TGI (HOP-62 NSCLC) was greater than 100 µM, the GI50 (SK-OV-3 ovarian) was greater than 100 µM and the TGI (SK-OV-3 ovarian) was greater than 100 µM. The GI50 (NCI-H226 lung) was 66.1 µM, the TGI (NCI-H226 lung) was greater than 100 µM and the GI50 (EKVX NSCLC) was 93.8 µM. The TGI (EKVX NSCLC) was greater than 100 µM, the GI50 (NCI-H460 lung) was 36.4 µM and the TGI (NCI-H460 lung) was greater than 100 µM. It also gave a GI50 (OVCAR-4 ovarian) greater than 100 µM, a TGI (OVCAR-4 ovarian) greater than 100 µM and a GI50 (KM20L2 colon) greater than 100 µM. The TGI (KM20L2 colon) was greater than 100 µM, the GI50 (786-0 renal) was 88.8 µM and the TGI (786-0 renal) was greater than 100 µM. The GI50 (U251 CNS) was greater than 100 µM, the TGI (U251 CNS) was greater than 100 µM and the GI50 (LOX IMVI melanoma) was 72.9 µM. For the same molecule, the TGI (LOX IMVI melanoma) was greater than 100 µM, the GI50 (LXFL 529 NSCLC) was greater than 100 µM and the TGI (LXFL 529 NSCLC) was greater than 100 µM. For the same molecule, the GI50 (OVCAR-3 ovarian) was greater than 100 µM, the TGI (OVCAR-3 ovarian) was greater than 100 µM and the GI50 (SF-295 CNS) was 73.2 µM. The TGI (SF-295 CNS) was greater than 100 µM, the GI50 (UACC-257 melanoma) was greater than 100 µM and the TGI (UACC-257 melanoma) was greater than 100 µM.
